Laboratory results taken from US20050102708A1, “Animal model simulating neurologic disease” (priority 2003, published 2005).

Tests used:
[1] = tested on: Hyperphosphorylated Tau protein; test: ELISA of hyperphosphorylated Tau protein in CSF; format: in vivo, rat; conditions: rats, four week infusion into the left ventricle
Experimental: (§1) Surgical procedure: Anesthetized rats (equitesin, 3 ml/kg, i.p.) were placed on a stereotaxic frame. Using the electrode micromanipulator, the outlet of an osmotic micropump (Durect Corp., Cupertino, Calif.) was implanted into the left ventricle following the coordinates D=3.4 mm, L=1.4 mm and AP=0.92 mm prior to the bregma. The tank of the osmotic pump was implanted in a subcutaneous pocket in the midscapular area of the back of the rat. After surgery rats were put on a heating blanket for recovery. During the whole procedure, the body temperature was monitored and kept stable at 37° C.
Perfusion: Rats were divided into six groups regarding the composition of the solution contained in the osmotic micropump tank, as provided in Table 1. Group I served as the control group and received only artificial cerebrospinal fluid (“CSF”).
ELISA: Hyperphosphorylated Tau protein was measured in the CSF using the Elisa kit INNOTEST™ (Innogenetics, Belgium).

Long-Evans male rats = test: Morris watermaze memory retention test; format: in vivo, rat; conditions: four week infusion into the left ventricle, tested at end of perfusion period
From the text: Inducing a Neurologic Disease in a Non-Human Animal. Animals: Long-Evans male rats weighing 300-325 grams were housed following a natural day-night cycle with food and water ad libitum.
Morris watermaze protocol: Before the surgery, the rats were trained on a standard Morris spatial navigation task in a black water tank (200 cm diameter). The water was rendered opaque by water-miscible non-toxic white paint (Crayola Inc.). The rats were placed in four different, randomly assigned, start positions and trained to find an invisible platform (20 cm diameter) at a fixed position in the middle of the water tank. The water temperature was about 24° C. A trial lasted until a rat found the platform or until 120 seconds elapsed. […] Rats were trained for four consecutive days, four trials a day, with 30 minutes between subsequent trials. Surgery procedures were performed on the fifth day. Rats were tested again for memory retention at the end of the four weeks-perfusion period.
as §1, with “The tank of the osmotic pump was implanted in a subcutaneous pocket in the midscapular area of the back of the rat. After surgery rats were put on a heating blanket for recovery.” left out, “C. […]” for “C.”

Substance: β42-amyloid peptide [Aβ42]
- phosphorylated Tau protein in the CSF [1]: not sufficient to induce
- memory impairment / latency to retrieve the platform in the Morris watermaze test (Long-Evans male rats): not sufficient to induce memory impairment
